Read-outs that look alike come from different tables or passages of the source.
How the values were obtained:
[1] = target: T1, human recombinant OX2 (hOX2) receptors expressed in CHO cells (Homo sapiens, UniProt O43614); experiment: IP-1 accumulation assay (IP-One HTRF) in hOX2-CHO cells; assay type: cell-based; conditions: 60 min incubation at 37° C., mean of at least two independent experiments, read-out: EC50_OX2R Category
T1 construct: host or cells: CHO cells (hOX2-CHO)
T1 sequence (O43614 1-444): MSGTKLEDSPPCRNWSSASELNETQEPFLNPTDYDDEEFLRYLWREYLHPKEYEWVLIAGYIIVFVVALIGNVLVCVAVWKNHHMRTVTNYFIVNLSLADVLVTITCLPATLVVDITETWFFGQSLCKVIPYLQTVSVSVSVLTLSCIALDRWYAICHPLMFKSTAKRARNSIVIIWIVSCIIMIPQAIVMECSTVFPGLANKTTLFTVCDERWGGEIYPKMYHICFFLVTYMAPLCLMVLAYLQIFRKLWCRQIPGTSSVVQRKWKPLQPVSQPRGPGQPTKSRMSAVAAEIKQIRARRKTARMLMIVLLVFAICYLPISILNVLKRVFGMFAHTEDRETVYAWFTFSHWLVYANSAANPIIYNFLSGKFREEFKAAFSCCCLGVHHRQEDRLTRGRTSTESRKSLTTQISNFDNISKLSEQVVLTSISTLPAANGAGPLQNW
In short: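 IP-1 HTRF (665/615 ratio) after 60 min compound exposure at 37 °C, 11-point dilution, 0.5% DMSO, LiCl-containing HEPES-buffered HBSS pH 7.4. Response expressed as percent of maximal OX-A effect; EC50 by four-parameter logistic fit, averaged over at least two independent experiments in duplicate.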

Structure (SMILES) | EC50 [1] [nM] | further results
O=C1COC[C@@]2(CCCN3C(=O)OCCOc4cccc(c4)[C@H]4CC[C@H](CC4)OC[C@H]32)N1 (relative stereo) |  | ring closure, yield of all isomers (from O=C1COC[C@@]2(CCCN(C(=O)OCCCl)[C@H]2CO[C@H]2CC[C@@H](c3cccc(O)c3)CC2)N1, ether bond, Cs2CO3, DMF, 4.02 mM, 60.0 °C, 15.0 h): 11.1%
O=C1COC[C@@]2(CCN3C(=O)CCOc4ccccc4[C@H]4CC[C@H](CC4)OC[C@H]32)N1 (relative stereo) |  | ring closure, yield of all isomers (from O=C(O)CCOc1ccccc1[C@H]1CC[C@@H](OC[C@@H]2NCC[C@@]23COCC(=O)N3)CC1, amide bond, HATU/DIPEA, acetonitrile, 1.97 mM, 3.0 h): 92.6%
O=C1COC[C@@]2(CCN3C(=O)CCOc4cccc(F)c4[C@H]4CC[C@H](CC4)OC[C@H]32)N1 (relative stereo) |  | ring closure, yield of all isomers (from O=C(O)CCOc1cccc(F)c1[C@H]1CC[C@@H](OC[C@@H]2NCC[C@@]23COCC(=O)N3)CC1, amide bond, HATU/DIPEA, acetonitrile, 5.42 mM, 25.0 °C, 4.0 h): 46.4%
O=C1N[C@]2(CCN3C(=O)CCOc4ccccc4[C@H]4CC[C@H](CC4)OC[C@H]32)COC1F (relative stereo) |  | ring closure, yield of all isomers (from O=C(O)CCOc1ccccc1[C@H]1CC[C@@H](OC[C@@H]2NCC[C@@]23COC(F)C(=O)N3)CC1, amide bond, HATU/DIPEA, acetonitrile, 3.66 mM, 3.0 h): 46.1%
O=C1COC[C@@]2(CCN3C(=O)CCOc4c(F)cc(F)cc4C4=CCC(CC4)OC[C@H]32)N1 (relative stereo) |  | ring closure, yield of all isomers (from O=C(O)CCOc1c(F)cc(F)cc1C1=CCC(OC[C@@H]2NCC[C@@]23COCC(=O)N3)CC1, amide bond, HATU/DIPEA, acetonitrile, 3.43 mM, 3.0 h): 60.1%
O=C1COc2ccccc2[C@H]2CC[C@H](CC2)OCC2C(O)CCCN12 (stereo partly drawn) |  | ring closure, yield of all isomers (from O=C(O)COc1ccccc1[C@H]1CC[C@@H](OCC2NCCCC2O)CC1, amide bond, HATU, acetonitrile, 19.25 mM, 3.0 h): 65%
C[C@@H]1CC2(COCC(=O)N2)C2Cc3cccc(c3F)-c3ccccc3OCCC(=O)N21 (mixture of isomers) [Example 26, (13′R)-22′-fluoro-13′-methyl-8′-oxa-12′-azaspiro[morpholine-3,15′-tetracyclo[16.3.1.0^2,70.0^12,16]docosane]-1′(22′),2′(7′),3′,5′,18′,20′-hexaene-5,11′-dione] | 1000 to 10000 | ring closure, yield of all isomers (from C[C@@H]1CC2(COCC(=O)N2)C(Cc2cccc(-c3ccccc3OCCC(=O)O)c2F)N1, amide bond, HATU, DIPEA, acetonitrile, 0.84 mM, 25.0 °C, 2.5 h): 2.4%
O=C1COC[C@@]2(CCCN3C(=O)OCCOc4ccccc4-c4cccc(c4F)C[C@H]32)N1 (relative stereo) |  | ring closure, yield of all isomers (from O=C1COC[C@@]2(CCCN[C@H]2Cc2cccc(-c3ccccc3OCCO)c2F)N1, other bond, triphosgene, MeCN, 15.7 mM, 80.0 °C, 20.5 h): 3.6%
CC1CC(=O)N2CC[C@@]3(COCC(=O)N3)[C@@H]2CO[C@H]2CC[C@H](CC2)c2ccccc2O1 (relative stereo) |  | ring closure, yield of all isomers (from CC(CC(=O)O)Oc1ccccc1[C@H]1CC[C@@H](OC[C@@H]2NCC[C@@]23COCC(=O)N3)CC1, amide bond, HATU/DIPEA, acetonitrile, 3.7 mM, 3.0 h): 45.6%
C[C@@H]1CC2(COCC(=O)N2)C2COC3CC=C(CC3)c3cccc(F)c3OCC(=O)N21 (stereo partly drawn) |  | ring closure, yield of all isomers (from C[C@@H]1CC2(COCC(=O)N2)C(COC2CC=C(c3cccc(F)c3OCC(=O)O)CC2)N1, amide bond, HATU, DIPEA, acetonitrile, 16.9 mM, 3.0 h): 30.1%
O=C1COC[C@@]2(CCN3C(=O)CCCOc4ccccc4[C@H]4CC[C@H](CC4)OC[C@H]32)N1 (relative stereo) |  | ring closure, yield of all isomers (from O=C(O)CCCOc1ccccc1[C@H]1CC[C@@H](OC[C@@H]2NCC[C@@]23COCC(=O)N3)CC1, amide bond, HATU/DIPEA, acetonitrile, 2.01 mM, 3.0 h): 54.4%
O=C1COC[C@@]2(CCN3C(=O)CC(C(F)(F)F)Oc4ccccc4[C@H]4CC[C@H](CC4)OC[C@H]32)N1 (relative stereo) |  | ring closure, yield of all isomers (from O=C(O)CC(Oc1ccccc1[C@H]1CC[C@@H](OC[C@@H]2NCC[C@@]23COCC(=O)N3)CC1)C(F)(F)F, amide bond, HATU/DIPEA, acetonitrile, 3.68 mM, 3.0 h): 54.7%
O=C1COCC2(CCCN3C(=O)CCCOc4ccccc4[C@H]4CC[C@H](CC4)OCC32)N1 (stereo partly drawn) [Example 34, Rel-(1′s,3S,18′R,21′s)-8′,20′-dioxa-13′-azaspiro[morpholine-3,17′-tetracyclo[19.2.2.0^2,70.0^13,18]pentacosane]-2′(7′),3′,5′-triene-5,12′-dione] | < 100 | 
C[C@@H]1CC2(COCC(=O)N2)C2CO[C@H]3CC[C@H](CC3)c3ccccc3OCCC(=O)N21 (relative stereo) [Example 13, rel-(1′s,3S, 13′R,16′R,19′s)-13′-methyl-8′,18′-dioxa-12′-azaspiro[morpholine-3,15′-tetracyclo[17.2.2.0^2,70.0^12,16]tricosane]-2′(7′),3′,5′-triene-5,11′-dione] | < 100 | 

The next lines start with results.

EC50 [1] [nM] | Structure (SMILES) | further results
100 to 1000 | CC1COc2ccccc2[C@H]2CC[C@H](CC2)OC[C@@H]2N(CC[C@@]23COCC(=O)N3)C1=O (relative stereo) [Example 5c, (1′s,3R,10′R,16′S,19′s)-10′-methyl-8′,18′-dioxa-12′-azaspiro[morpholine-3,15′-tetracyclo[17.2.2.0^2,70.0^12,16]tricosane]-2′(7′),3′,5′-triene-5,11′-dione and (1′s,3S, 10′S,16′R,19′s)-10′-methyl-8′,18′-dioxa-12′-azaspiro[morpholine-3,15′-tetracyclo[17.2.2.0^2,70.0^12,16]tricosane]-2′(7′), 3′,5′-triene-5,11′-dione] | ring closure, yield of all isomers (from CC(COc1ccccc1[C@H]1CC[C@@H](OC[C@@H]2NCC[C@@]23COCC(=O)N3)CC1)C(=O)O, amide bond, HATU/DIPEA, acetonitrile, 3.68 mM, 3.0 h): 9.4%
< 100 | C[C@@H]1C[C@@]2(COCC(=O)N2)[C@@H]2CO[C@H]3CC[C@H](CC3)c3c(F)cccc3OCC(=O)N12 (single isomer, unassigned) [Example 17a] | ring closure, yield of all isomers (from C[C@@H]1CC2(COCC(=O)N2)C(CO[C@H]2CC[C@@H](c3c(F)cccc3OCC(=O)O)CC2)N1, amide bond, HATU, DIPEA, acetonitrile, 19.2 mM, 3.0 h): 9%
< 100 | C[C@@H]1C[C@@]2(COCC(=O)N2)[C@@H]2CO[C@H]3CC[C@H](CC3)c3cccc(F)c3OCCC(=O)N12 (single isomer, unassigned) [Example 24a] | ring closure, yield of all isomers (from C[C@@H]1CC2(COCC(=O)N2)C(CO[C@H]2CC[C@@H](c3cccc(F)c3OCCC(=O)O)CC2)N1, amide bond, HATU, DIPEA, acetonitrile, 12.2 mM, 3.0 h): 37.1%
1000 to 10000 | O=C1COC[C@]2(CCN3C(=O)C4(CC4)COc4cccc(F)c4[C@H]4CC[C@H](CC4)OC[C@@H]32)N1 (single isomer, unassigned) [Example 73a, (1′s,15′R,16′S,19′s)-3′-fluorodispiro [cyclopropane-1,10′-[8,18]dioxa-[12]azatetracyclo[17. 2.2.0^2,^7.0^12,^16]tricosane-15′,3″- morpholine]-2′,4′,6′-triene-5″,11′-dione] | 
100 to 1000 | C[C@@H]1C[C@]2(COCC(=O)N2)[C@H]2CO[C@H]3CC[C@H](CC3)c3cccc(F)c3OCCC(=O)N12 (single isomer, unassigned) [Example 24b] | 
1000 to 10000 | C[C@@H]1C[C@]2(COCC(=O)N2)[C@H]2CO[C@H]3CC[C@H](CC3)c3c(F)cccc3OCC(=O)N12 (single isomer, unassigned) [Example 17b] | 
< 100 | C[C@@H]1C[C@@]2(COCC(=O)N2)[C@@H]2CO[C@H]3CC[C@H](CC3)c3ccc(F)cc3OCC(=O)N12 (single isomer, unassigned) [Example 19a] | 
100 to 1000 | C[C@@H]1C[C@@]2(COCC(=O)N2)[C@@H]2CO[C@H]3CC[C@H](CC3)c3cc(Cl)ccc3OCC(=O)N12 (single isomer, unassigned) [Example 21a] | 
> 10000 | O=C1COC[C@]2(CCCN3C(=O)COc4c(F)ccc(F)c4[C@H]4CC[C@H](CC4)OC[C@@H]32)N1 (single isomer, unassigned) [Example 44b] | 
100 to 1000 | C[C@@H]1CC(=O)N2CC[C@@]3(COCC(=O)N3)[C@@H]2CO[C@H]2CC[C@H](CC2)c2ccccc2O1 (single isomer, unassigned) [Example 4c] | 
< 100 | O=C1COC[C@@]2(CCCN3C(=O)COc4nccc(F)c4[C@H]4CC[C@H](CC4)OC[C@H]32)N1 (single isomer, unassigned) [Example 46a] | 
< 100 | O=C1COC[C@@]2(CCCN3C(=O)C4(CC4)COc4ccccc4[C@H]4CC[C@H](CC4)OC[C@H]32)N1 (single isomer, unassigned) [Example 37a, (1′s,16′S,17′R,20′s)-dispiro[cyclopropane-1,10′-[8,19]dioxa-[12]azatetracyclo[18.2.2.0^2,70.0^12,17]tetracosane-16′,3″-morpholine]-2′(7′),3′,5′-triene-5″,11′-dione] | 
< 100 | O=C1N[C@]2(CCCN3C(=O)COc4ccccc4[C@H]4CC[C@H](CC4)OC[C@H]32)CO1 (single isomer, unassigned) [Example 67a] | 
< 100 | O=C1COC[C@@]2(CCCN3C(=O)COc4c(F)ccc(F)c4[C@H]4CC[C@H](CC4)OC[C@H]32)N1 (single isomer, unassigned) [Example 44a] | 
< 100 | O=C1COC[C@@]2(CCCN3C(=O)CCOc4c(F)cccc4[C@H]4CC[C@H](CC4)OC[C@H]32)N1 (single isomer, unassigned) [Example 48a] | 

Reference: US20250320227A1, “MACROCYCLIC OREXIN RECEPTOR AGONISTS AND USES THEREOF” (Jazz Pharmaceuticals Ireland Limited, priority 2022, published 2025)
